Source: US4564619A, “Carbostyril derivative” (Otsuka Pharmaceutical Co., Ltd., priority 1982, dated 1986)

How the values were obtained:
[1] = test system: collagen-induced aggregation in rabbit platelets; test: Inhibition of collagen-induced platelet aggregation in rabbit platelet rich plasma; type: cell-based; conditions: Oryctolagus cuniculus, read-out: Inhibition rate of collagen-induced aggregation; for inhibition at 100 µM (stock): Concentration of the test compound solution 10^-4 mole; for inhibition at 10 µM (stock): Concentration of the test compound solution 10^-5 mole
Experimental: (§1) The platelet aggregation inhibitory effect was measured by using a Platelet Aggregation Tracer Model PAT-6M (manufactured by Nikoh Bio-Science Co., Ltd.) by a method according to Kimura, et al., [IGAKU-NO-AYUMI (Progress in Medicine), Vol. 114, No. 9, pp. 718-727, Aug. 30, 1980, and Nature, pp. 927-929, 1962].
(§2) The blood sample used for the test was a 1:9 (by volume) mixture of "3.8%-CITRATE"® (a registered trademark for 3.8%-sodium citrate, manufactured by Green Cross Corp.) and whole blood collected from rabbits. Said sample was subjected to 10-minute centrifugal separation at 1,000 r.p.m. (200xG) to obtain a platelet rich plasma (PRP). The PRP thus obtained was separated, and the remaining blood sample was further subjected to 15-minute centrifugal separation at 3,000 r.p.m. (2,000xG) to obtain a platelet poor plasma (PPP).
(§3) The number of platelets in the PRP was counted by the Brecher-Clonkite Method, and the PRP was diluted with the PPP to prepare a PRP sample with a platelet concentration of 600,000/microliter to prepare for an adenosine diphosphate (ADP)-induced aggregation test, and a collagen-induced aggregation test. 0.2 Milliliter of the PRP sample was added to 2 microliters of a solution of a test compound of predetermined concentration and this mixture was placed in a 37° C. thermostat for one minute. Then 20 microliters of an ADP or collagen solution was added to the mixture. In this test, the ADP solution was prepared by adjustment to a concentration of 7.5×10^-5 M by using Auren-Beronal buffer solution (pH 7.35). Further, the collagen solution was prepared by adjustment to a concentration of 200 micrograms/ml by using collagen reagent of "Holm"® (manufactured by Hormon-Chemie Munchen, GmbH.) which was diluted wih a physiological saline solution.
(§4) The transmittance of the resultant test mixture was determined and the change of transmittance was recorded by using the aggregometer at a stirrer speed of 1,100 r.p.m.
(§5) The platelet aggregation inhibitory effect of the test compound was measured in terms of inhibition rate (%) with respect to the aggregation rate of the controls. The aggregation rate was calculated from the following formula.
(§6) Aggregation rate=[(c-a)/(b-a)]×100
(§7) The percent inhibition is calculated from the following formula.
(§8) Inhibition rate (%)=[(A-B)/A]×100
(§9) The inhibitory effect of the test compounds on collagen-induced aggregation in rabbit platelets is shown in Table 1, similarly such effect on ADP-induced aggregation in rabbit platelets is shown in Table 2.

[2] = test system: ADP-induced aggregation in rabbit platelets; test: Inhibition of ADP-induced platelet aggregation in rabbit platelet rich plasma; type: cell-based; conditions: Oryctolagus cuniculus, read-out: Inhibition rate of ADP-induced aggregation; for inhibition at 100 µM (stock): Concentration of the test compound solution 10^-4 mole; for inhibition at 10 µM (stock): Concentration of the test compound solution 10^-5 mole
Experimental: as §1, §2, §3, §4, §5, §6, §7, §8, §9

[3] = Change of blood pressure, intravenous administration, anesthetized dog; type: in vivo; set-up: unit not given here; conditions: femoral artery
Experimental: The change of blood flow in coronary artery and the change of blood pressure were measured by a method according to Yakura et al., [Japan Journal of Pharmacology, Vol. 57, pages 380-391 (1961)] and according to Taira, et al. [Clin. Exp. Pharmacol. Physiol., Vol. 6, pages 301-316, (1976)].
An adult bastard dog of either sex weighing 8-13 kg was anesthetized with sodium pentobarbital at the rate of 30 mg/kg by intraveneous administration, then the dog was fixed in supination and was theracotomized under a condition of forced breathing. After another intraveneous administration of sodium heparin at the rate of 500 U/kg, 100 U/kg per hour, the dog was subjected to the following experiments.
(2) Intraveneous administration
Morawitz's cannula was cannulated to the coronary sinus venosus through the auricula dextra cordis, and the blood in vein was circulated to the right carotid. The blood flow was measured by an electromagnetic blood flow meter equipped with a blood flow observation probe in the extracorporeal circulation path of the vein. The systolic force was measured by a systolometer (pick-up) placed at the left ventricle of heart, the blood pressure was measured from the femoral artery, and the heart rate was measured from the pulse. A compound to be tested was administered through the cannula being cannulated in femoral vein. The increased amount of the blood flow in coronary artery after the administration of the test compound is shown in Table 4, also the change of blood pressure is shown in Table 5.

SMILES | inhibition at 100 µM (stock) [1] | inhibition at 100 µM (stock) [2] | Change of blood pressure ([3]; 3 micrograms/kg) | Change of blood pressure ([3]; 10 micrograms/kg) | Change of blood pressure ([3]; 30 micrograms/kg) | Change of blood pressure ([3]; 100 micrograms/kg) | inhibition at 10 µM (stock) [1] | inhibition at 10 µM (stock) [2] | Change of blood pressure ([3]; 300 micrograms/kg)
C=CCOc1ccc(OCCCCOC(=O)C2=C(C)NC(C)=C(C(=O)OC)C2c2cccc([N+](=O)[O-])c2)c2c1NC(=O)CC2 (stereo not shown) [Compound 19, 5-{4-[2,6-Dimethyl-5-methoxycarbonyl-4-(3-nitrophenyl)-1,4-dihydropyridin-3-carboxy]-butoxy}-8-alloyloxy-3,4-dihydrocarbostyril] | 17% | 17% | -22 | -34 | -44 | -55 |  |  | 
COC(=O)C1=C(C)NC(C)=C(C(=O)OCCOc2ccc3[nH]c(=O)ccc3c2)C1c1ccccc1[N+](=O)[O-] (stereo not shown) [Compound 20, 6-{2-[2,6-Dimethyl-5-methoxycarbonyl-4-(2-nitrophenyl)-1,4-dihydropyridin-3-carboxy]-ethoxy}carbostyril] | 100% | 100% |  |  | -4 | -8 | 100% | 65% | -32
COC(=O)C1=C(C)NC(C)=C(C(=O)OCCOc2ccc3c(c2)CCC(=O)N3)C1c1ccccc1[N+](=O)[O-] (stereo not shown) [Compound 21, 6-{2-[2,6-Dimethyl-5-methoxycarbonyl-4-(2-nitrophenyl)-1,4-dihydropyridin-3-carboxy]-ethoxy}-3,4-dihydrocarbostyril] | 100% | 58% |  | -7 | -12 | -28 | 99% | 27% | -42
COC(=O)C1=C(C)NC(C)=C(C(=O)OCCCOc2cccc3[nH]c(=O)ccc23)C1c1cccc([N+](=O)[O-])c1 (stereo not shown) [Compound 22, 5-{3-[2,6-Dimethyl-5-methoxycarbonyl-4-(3-nitrophenyl)-1,4-dihydropyridin-3-carboxy]-propoxy}carbostyril] | 100% | 62% |  | -2 | -8 | -18 | 21% | 13% | -36
COC(=O)C1=C(C)NC(C)=C(C(=O)OCCCCOc2ccc3[nH]c(=O)ccc3c2)C1c1ccccc1C(F)(F)F (stereo not shown) [Compound 24, 6-{4-[2,6-Dimethyl-5-methoxycarbonyl-4-(2-trifluoromethylphenyl)-1,4-dihydropyridin-3-carboxy]butoxy}carbostyril] | 100% | 100% |  | -6 | -18 | -30 | 30% | 62% | -44
COC(=O)C1=C(C)NC(C)=C(C(=O)OCCCCOc2ccc3c(c2)CCC(=O)N3)C1c1ccccc1SC (stereo not shown) [Compound 26, 6-{4-[2,6-Dimethyl-5-methoxycarbonyl-4-(2-methylthiophenyl)-1,4-dihydropyridin-3-carboxy]butoxy}-3,4-dihydrocarbostyril] | 100% | 87% |  | -6 | -10 | -21 | 19% | 22% | -42
COC(=O)C1=C(C)NC(C)=C(C(=O)OCCCCOc2ccc3c(c2)CCC(=O)N3)C1c1ccccc1Cl (stereo not shown) [Compound 27, 6-{4-[2,6-Dimethyl-5-methoxycarbonyl-4-(2-chlorophenyl)-1,4-dihydropyridin-3-carboxy]-butoxy}-3,4-dihydrocarbostyril] | 61% | 42% | -4 | -10 | -27 | -52 |  |  | 
COC(=O)C1=C(C)NC(C)=C(C(=O)OCCCCOc2ccc3c(c2)CCC(=O)N3)C1c1ccccc1 (stereo not shown) [Compound 28, 6-[4-(2,6-Dimethyl-5-methoxycarbonyl-4-phenyl-1,4-dihydropyridin-3-carboxy)butoxy]-3,4-dihydrocarbostyril] | 63% | 52% | -1 | -10 | -7 | -20 |  |  | -47
COC(=O)C1=C(C)NC(C)=C(C(=O)OCCCCOc2ccc3c(c2)CCC(=O)N3)C1c1ccccc1C (stereo not shown) [Compound 29, 6-{4-[2,6-Dimethyl-5-methoxycarbonyl-4-(2-methylphenyl-1,4-dihydropyridin-3-carboxy)]-butoxy}-3,4-dihydrocarbostyril] | 69% | 59% | -7 | -23 | -45 | -70 |  |  | -80
COC(=O)C1=C(C)NC(C)=C(C(=O)OCCCCOc2ccc3c(c2)CCC(=O)N3)C1c1ccccc1C(=O)OC (stereo not shown) [Compound 30, 6-{4-[2,6-Dimethyl-5-methoxycarbonyl-4-(2-methoxycarbonyl)-1,4-dihydropyridin-3-carboxy]butoxy}-3,4-dihydrocarbostyril] | 100% | 89% |  | -1 | -16 | -38 | 3% |  | 
COC(=O)C1=C(C)NC(C)=C(C(=O)OCCCOc2cc(=O)[nH]c3ccccc23)C1c1cccc([N+](=O)[O-])c1 (stereo not shown) [Compound 37, 4-{3-[2,6-Dimethyl-5-methoxycarbonyl-4-(3-nitrophenyl)-1,4-dihydropyridin-3-carboxy]propoxy}carbostyril] | 15% | 17% |  |  | -1 | -5 |  |  | -18
COC(=O)C1=C(C)NC(C)=C(C(=O)OCCCOc2ccc3[nH]c(=O)cc(C)c3c2)C1c1cccc([N+](=O)[O-])c1 (stereo not shown) [Compound 38, 4-Methyl-6-{3-[2,6-dimethyl-5-methoxycarbonyl-4-(3-nitrophenyl)-1,4-dihydropyridin-3-carboxy]propoxy}carbostyril] | 45% | 31% |  | -2 | -10 | -35 |  |  | 
COC(=O)C1=C(C)NC(C)=C(C(=O)OCC(COc2ccc3[nH]c(=O)ccc3c2)OC(C)=O)C1c1cccc([N+](=O)[O-])c1 (stereo not shown) [Compound 43, 6-{3-[2,6-Dimethyl-5-methoxycarbonyl-4-(3-nitrophenyl)-1,4-dihydropyridin-3-carboxy]-2-acetoxypropoxy}carbostyril] | 100% | 100% |  |  | -4 | -16 | 100% | 100% | -23
